Our source for the Inhibition values is ChEMBL document CHEMBL1147536, “Synthesis and biochemical properties of E-ring modified luotonin A derivatives” (2004).

What all share (format): functional
Assay [1] deals with Saccharomyces cerevisiae. The assay can be described thus: Percent inhibitory activity of 25 uM of compound against growth of Saccharomyces cerevisiae transfected with human topoisomerase-1 in medium containing galactose.
Assay [2] has as its system Saccharomyces cerevisiae. Nature of the assay: Percent inhibitory activity of 50 uM of compound against growth of Saccharomyces cerevisiae transfected with human topoisomerase-1 in medium containing galactose.
Assay [3] has as its system Saccharomyces cerevisiae. The assay can be described thus: Percent inhibitory activity of 25 uM of compound against growth of Saccharomyces cerevisiae transfected with human topoisomerase-1 in medium containing raffinose.
Assay [4] relates to Saccharomyces cerevisiae. The assay can be described thus: Percent inhibitory activity of 50 uM of compound against growth of Saccharomyces cerevisiae transfected with human topoisomerase-1 in medium containing raffinose.
For assay [5], the system named is Saccharomyces cerevisiae. The assay can be described thus: Percent inhibitory activity of 100 uM of compound against growth of Saccharomyces cerevisiae transfected with human topoisomerase-1 in medium containing raffinose.
Assay [6] relates to Saccharomyces cerevisiae. The assay can be described thus: Percent inhibitory activity of 100 uM of compound against growth of Saccharomyces cerevisiae transfected with human topoisomerase-1 in medium containing galactose.
The subject of assay [7] is Saccharomyces cerevisiae. Nature of the assay: Percent inhibitory activity of 1 uM of compound against growth of Saccharomyces cerevisiae transfected with human topoisomerase-1 in medium containing galactose.
Assay [8] relates to Saccharomyces cerevisiae. The assay can be described thus: Percent inhibitory activity of 10 uM of compound against growth of Saccharomyces cerevisiae transfected with human topoisomerase-1 in medium containing galactose.
Assay [9] concerns Saccharomyces cerevisiae. Nature of the assay: Percent inhibitory activity of 1 uM of compound against growth of Saccharomyces cerevisiae transfected with human topoisomerase-1 in medium containing raffinose.
Assay [10] concerns Saccharomyces cerevisiae. Nature of the assay: Percent inhibitory activity of 10 uM of compound against growth of Saccharomyces cerevisiae transfected with human topoisomerase-1 in medium containing raffinose.
The test system of assay [11] is Saccharomyces cerevisiae. The assay can be described thus: Percent inhibitory activity of 5 uM of compound against growth of Saccharomyces cerevisiae transfected with human topoisomerase-1 in medium containing raffinose.
Assay [12] deals with Saccharomyces cerevisiae. Nature of the assay: Percent inhibitory activity of 5 uM of compound against growth of Saccharomyces cerevisiae transfected with human topoisomerase-1 in medium containing galactose.
Assay [13] has as its system Saccharomyces cerevisiae. The assay can be described thus: Percent inhibitory activity of 0.5 uM of compound against growth of Saccharomyces cerevisiae transfected with human topoisomerase-1 in medium containing raffinose.
The test system of assay [14] is Saccharomyces cerevisiae. The assay can be described thus: Percent inhibitory activity of 0.5 uM of compound against growth of Saccharomyces cerevisiae transfected with human topoisomerase-1 in medium containing galactose.
In assay [15] the test system is Saccharomyces cerevisiae. Nature of the assay: Percent inhibitory activity of 1.5 uM of compound against growth of Saccharomyces cerevisiae transfected with human topoisomerase-1 in medium containing raffinose.
Assay [16] deals with Saccharomyces cerevisiae. Nature of the assay: Percent inhibitory activity of 0.75 uM of compound against growth of Saccharomyces cerevisiae transfected with human topoisomerase-1 in medium containing galactose.
Assay [17] concerns Saccharomyces cerevisiae. Nature of the assay: Percent inhibitory activity of 15 uM of compound against growth of Saccharomyces cerevisiae transfected with human topoisomerase-1 in medium containing galactose.
Assay [18] has as its system Saccharomyces cerevisiae. The assay can be described thus: Percent inhibitory activity of 15 uM of compound against growth of Saccharomyces cerevisiae transfected with human topoisomerase-1 in medium containing raffinose.
Assay [19] has as its system Saccharomyces cerevisiae. Nature of the assay: Percent inhibitory activity of 0.75 uM of compound against growth of Saccharomyces cerevisiae transfected with human topoisomerase-1 in medium containing raffinose.
Assay [20] deals with Saccharomyces cerevisiae. The assay can be described thus: Percent inhibitory activity of 1.5 uM of compound against growth of Saccharomyces cerevisiae transfected with human topoisomerase-1 in medium containing galactose.

Usually Inhibition stands for the relative decrease from the control value, in per cent. A lower Inhibition goes with a response near the control. For `O=c1c2ccc(F)cc2nc2n1Cc1cc3ccccc3nc1-2`, the Inhibition in the assay with Saccharomyces cerevisiae [1] stood at 40%; with Saccharomyces cerevisiae [2] it was 73%; with Saccharomyces cerevisiae [3] it was 0%; in the assay with Saccharomyces cerevisiae [4] it was 14%.
Consider `O=c1c2c(nc3n1Cc1cc4ccccc4nc1-3)CCCC2`, for which the Inhibition in the assay with Saccharomyces cerevisiae [2] came out at 46%; in the assay on Saccharomyces cerevisiae [5] it was 18%; with Saccharomyces cerevisiae [6], 51%; in the assay on Saccharomyces cerevisiae [4] it was 3%.
On to `Cc1ccc2nc3n(c(=O)c2c1)Cc1cc2ccccc2nc1-3`, for which the Inhibition in the assay on Saccharomyces cerevisiae [7] stood at 14%; with Saccharomyces cerevisiae [8], 49%; in the assay with Saccharomyces cerevisiae [9] it was 8%; in the assay on Saccharomyces cerevisiae [10], 39%.
`COc1cccc2c(=O)n3c(nc12)-c1nc2ccccc2cc1C3` [16-METHOXYLUOTONIN A]: the Inhibition is given as 2% in the assay on Saccharomyces cerevisiae [1], 47% in the assay with Saccharomyces cerevisiae [3], 35% with Saccharomyces cerevisiae [11] and 0% in the assay on Saccharomyces cerevisiae [12].
For the molecule `O=c1c2cccc(O)c2nc2n1Cc1cc3ccccc3nc1-2`, the Inhibition is recorded as 9% with Saccharomyces cerevisiae [2], 7% with Saccharomyces cerevisiae [5], 13% in the assay on Saccharomyces cerevisiae [6] and 0% in the assay with Saccharomyces cerevisiae [4].
In the case of `O=c1c2cc(F)c(F)cc2nc2n1Cc1cc3ccccc3nc1-2`, the Inhibition came out at 0% in the assay with Saccharomyces cerevisiae [7], 0% in the assay with Saccharomyces cerevisiae [8], 26% in the assay on Saccharomyces cerevisiae [9] and 53% with Saccharomyces cerevisiae [10].
On to `O=c1c2ccccc2nc2n1Cc1cc3ccccc3nc1-2` [LUOTONIN A], for which the Inhibition is on record as 36% in the assay with Saccharomyces cerevisiae [7]; 56% in the assay with Saccharomyces cerevisiae [8]; 0% in the assay on Saccharomyces cerevisiae [9]; 0% in the assay on Saccharomyces cerevisiae [13]; 35% with Saccharomyces cerevisiae [10]; 23% in the assay with Saccharomyces cerevisiae [14].
Turning to `CC[C@@]1(O)C(=O)OCc2c1cc1n(c2=O)Cc2cc3ccccc3nc2-1` [CAMPTOTHECIN], the Inhibition with Saccharomyces cerevisiae [15] is recorded as 19%; with Saccharomyces cerevisiae [16] it was 40%; with Saccharomyces cerevisiae [17], 78%; in the assay with Saccharomyces cerevisiae [18], 18%; with Saccharomyces cerevisiae [19], 10%; in the assay with Saccharomyces cerevisiae [20], 68%.
